The conditions of this data set: Crystal; DTA.

Numbers after ± are expanded uncertainties.

On to `CNC(=O)c1cc(Oc2ccc(N)cc2)ccn1` [4-(4-aminophenoxy)-N-methylpyridine-2-carboxamide], for which the Normal melting temperature was 117.00 ± 1.1 °C.

Source of the values: the NIST ThermoML archive (doi:10.1021/acs.jced.8b00165).
